Measurements: ChEMBL document CHEMBL3621144, “Small-Molecule Allosteric Modulators of the Protein Kinase PDK1 from Structure-Based Docking” (J Med Chem, 2015)
Activity calls are given as the source filed them. The calls are words filed in the database; no cut-off is given here.

Key:
[1] = target: T1, 3-phosphoinositide-dependent protein kinase 1 (Homo sapiens, UniProt O15530); assay: Displacement of PIFtide from human PDK1 PIF pocket after 1 hr by fluorescence polarization assay
T1 sequence (O15530 whole entry): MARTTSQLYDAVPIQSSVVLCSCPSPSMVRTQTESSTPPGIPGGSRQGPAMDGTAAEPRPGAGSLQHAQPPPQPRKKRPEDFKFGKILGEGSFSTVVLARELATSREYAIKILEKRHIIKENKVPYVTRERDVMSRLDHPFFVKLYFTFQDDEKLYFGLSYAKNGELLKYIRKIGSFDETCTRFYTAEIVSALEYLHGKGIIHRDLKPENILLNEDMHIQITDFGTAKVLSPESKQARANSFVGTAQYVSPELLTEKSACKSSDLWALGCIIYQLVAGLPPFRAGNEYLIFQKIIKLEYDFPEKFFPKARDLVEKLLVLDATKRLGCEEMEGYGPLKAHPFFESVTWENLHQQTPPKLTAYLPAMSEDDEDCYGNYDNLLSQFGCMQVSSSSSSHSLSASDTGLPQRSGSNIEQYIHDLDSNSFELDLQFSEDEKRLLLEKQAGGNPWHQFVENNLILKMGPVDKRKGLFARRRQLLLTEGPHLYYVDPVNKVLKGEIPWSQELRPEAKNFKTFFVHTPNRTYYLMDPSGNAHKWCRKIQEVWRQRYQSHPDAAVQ

[2] = Induction of colloidal aggregates formation in Tris/NaCl/Pluronic F-68 buffer at 300 uM by dynamic light scattering method; assay type: physicochemical
[3] = Induction of colloidal aggregates formation in Tris/NaCl/MgCl2/CHAPS/beta-mercaptoethanol buffer at 200 uM by dynamic light scattering method; assay type: physicochemical
[4] = target: T1, 3-phosphoinositide-dependent protein kinase 1; assay: Activation of human PDK1 catalytic activity using T308tide as substrate after 1 hr by phosphor imager analysis in presence of [gamma-32P]-ATP relative to control
[5] = target: Cruzipain (Trypanosoma cruzi) (UniProt P25779); assay: Inhibition of Trypanosoma cruzi Cruzain using Z-FR-AMC as substrate preincubated for 5 mins followed by substrate addition measured for 5 mins by spectrofluorimetric analysis
Sequence of Cruzipain (Trypanosoma cruzi) (P25779 123-467 limits assumed): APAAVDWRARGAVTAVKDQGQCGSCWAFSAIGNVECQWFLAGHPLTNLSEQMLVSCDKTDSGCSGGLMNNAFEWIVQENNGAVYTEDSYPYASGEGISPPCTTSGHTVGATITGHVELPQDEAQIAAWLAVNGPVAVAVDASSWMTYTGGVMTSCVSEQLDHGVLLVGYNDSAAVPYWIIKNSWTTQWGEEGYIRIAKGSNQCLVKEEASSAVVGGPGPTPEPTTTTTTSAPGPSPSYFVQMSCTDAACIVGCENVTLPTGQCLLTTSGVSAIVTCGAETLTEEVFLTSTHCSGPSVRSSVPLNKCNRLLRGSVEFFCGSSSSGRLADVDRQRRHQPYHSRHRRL

[6] = Induction of colloidal aggregates formation in Tris/NaCl/Pluronic F-68 buffer at 100 uM by dynamic light scattering method; assay type: physicochemical

Kd [1] | SMILES | further results
> 200 µM | COc1ccccc1OCCSc1nc2ccccc2n1CC(=O)O | –
110 µM | Cc1cccc(OCCSc2nc3ccccc3n2CC(=O)O)c1C | –
> 200 µM | O=C(O)C/C(=C/c1cccc(C(F)(F)F)c1)c1nc2ccccc2o1 | –
> 200 µM | C[C@H](CN[C@H](c1ccc(F)cc1)P(=O)(O)O)c1ccccc1 | –
74 µM | Cc1ccccc1OCCSc1nc2ccccc2n1CCC(=O)O | –
39.4 µM | O=P(O)(O)[C@H](NC[C@@H]1CCCc2ccccc21)c1ccc(F)cc1 | Activity [2]: Not Active; Activity [3]: Not Active; EC50 [4]: 50 µM; inhibition [5]: inactive
> 200 µM | O=C(O)Cn1c(SCCOc2ccccc2)nc2ccccc21 | –
83 µM | C[C@@H](CN[C@H](c1ccc(F)c(F)c1)P(=O)(O)O)c1ccccc1 | –
120 µM | O=C(O)Cn1c(SCc2cccc3ccccc23)nc2ccccc21 | –
> 200 µM | O=C(O)Cn1c(SCCOc2ccccc2F)nc2ccccc21 | –
75 µM | Cc1cccc(OCCn2c(SCC(=O)O)nc3ccccc32)c1 | –
> 200 µM | O=P(O)(O)[C@H](NCCc1ccc(F)cc1)c1ccc(F)cc1 | –
> 200 µM | O=C(O)Cn1c(SCc2ccccc2)nc2ccccc21 | –
50 µM | Cc1ccccc1OCCSc1nc2ccccc2n1CC(=O)O | –
120 µM | O=C(O)CSc1nc2ccccc2n1CCOc1ccccc1 | –
150 µM | C[C@@H](CN[C@H](c1ccccc1)P(=O)(O)O)c1ccccc1 | –
39.1 µM | Cc1ccc(OCCSc2nc3ccccc3n2CC(=O)O)c(C)c1 | Activity [2]: Not Active; Activity [3]: Not Active; EC50 [4]: 40 µM; inhibition [5]: inactive; Activity [6]: Not Active
